Measured values from paper PMC12062478, “Screening herbal and natural product libraries to aid discovery of novel allosteric modulators of human P2X7” (Purinergic Signalling, 2024).
Several values for one entry are separate records, joined by “and”; a condition that tells them apart may be missing. Identical values can stand only once. Numbered stars: 1 amine (or outer) side, 2 acyl side, 3 side chain; on linkers, the order of the positions; unused ones are H or OH. Bridge positions count the residues as written; N and C are the ends. Square brackets hold non-standard residues; d marks the D form. Peptide text beside a SMILES is read from it. I, II: the chains in the order shown. Actinocin(9to1) = Cc1c2oc3c(C)ccc(C(=O)[*:1])c3nc-2c(C(=O)[*:2])c(N)c1=O; dHica = CC(C)C[C@@H](O)C(=O)O; NMeV = CN[C@H](C(=O)O)C(C)C; NMeA = CN[C@@H](C)C(=O)O; βAla = NCCC(=O)O; Sar = CNCC(=O)O

Biological target: T1, P2X7 (Homo sapiens, UniProt Q99572)
T1 construct: expressed in transfected cells
T1 sequence (Q99572 1-595): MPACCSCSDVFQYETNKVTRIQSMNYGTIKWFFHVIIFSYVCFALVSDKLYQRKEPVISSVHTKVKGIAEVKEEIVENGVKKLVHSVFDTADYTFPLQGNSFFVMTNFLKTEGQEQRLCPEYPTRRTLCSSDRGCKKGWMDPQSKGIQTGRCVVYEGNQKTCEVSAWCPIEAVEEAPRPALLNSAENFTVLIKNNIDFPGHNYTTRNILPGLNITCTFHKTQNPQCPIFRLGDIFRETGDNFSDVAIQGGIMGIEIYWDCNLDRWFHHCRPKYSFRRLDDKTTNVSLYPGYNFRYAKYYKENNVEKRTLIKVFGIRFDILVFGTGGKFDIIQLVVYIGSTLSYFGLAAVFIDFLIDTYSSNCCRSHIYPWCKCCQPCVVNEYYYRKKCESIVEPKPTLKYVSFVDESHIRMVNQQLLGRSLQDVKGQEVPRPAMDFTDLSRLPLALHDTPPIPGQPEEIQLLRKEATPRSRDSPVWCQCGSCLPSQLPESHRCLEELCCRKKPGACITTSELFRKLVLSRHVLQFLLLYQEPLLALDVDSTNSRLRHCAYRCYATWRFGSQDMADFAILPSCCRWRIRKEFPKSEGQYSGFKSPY
Assay: ATP-induced YO-PRO-1 dye uptake in HEK-hP2X7 cells
Type: cell-based
Settings: 10 µM, 10 min pre-incubation, ATP 1 mM
Protocol: HEK-hP2X7 or HEK-hP2X4 cells were plated at 2.5 × 10^4 cells per well (100 µL volume) the day before experiments into poly-D-lysine (Merck Millipore) coated 96-well plates (NUNC, Fisher Scientific #167-008). The membrane impermeant dye YO-PRO-1 iodide (Life Technologies, Fisher Scientific) was used at a final concentration of 2 µM in low divalent buffer (145 mM NaCl, 5 mM KCl, 0.2 mM CaCl2, 13 mM glucose, 10 mM HEPES, pH 7.3, osm 300–310). Media were removed from the plate, and 90 µL of YO-PRO-1 buffer was added per well. Plates were warmed to 37 °C for 5 min before recording. Data was acquired on a Flexstation 3 plate reader (Molecular Devices) using excitation wavelength 490 nm, emission wavelength 520 nm, and six reads per well (PMT medium). […] […] Pipette height was set to 80 µL and the rate of injection was 4.
YO-PRO-1 dye uptake assay data is plotted as a percentage of control where control responses are measured in the absence of plant extract. Cell viability data is plotted as a percentage of control or background-corrected fluorescence data. Concentration–response graphs were plotted using GraphPad Prism v6 with a non-linear regression fit (variable slope). IC50 values were generated from collated datasets from a minimum of three independent experiments. Statistical differences were determined by one-way ANOVA statistical tests performed using GraphPad Prism v6 with Dunnett’s multiple comparison post hoc test. Significance was taken as P ≤ 0.05.
We acquired a natural product library (Set IV) containing 419 compounds from NCI DTP and tested these on P2X7 responses using a YO-PRO-1 dye uptake in HEK293 cells stably expressing human P2X7 (HEK-hP2X7). […] This allowed us to assess for any immediate effect of the injected compound, and secondly, it allowed for any potential negative modulators to be pre-incubated with P2X7.

SMILES | Effect on ATP-mediated YO-PRO-1 uptake
COc1cc2c(c3c1c(=O)c1ccccc1n3C)C=CC(C)(C)O2 [Acronine] | able to reduce ATP-mediated YO-PRO-1 uptake
CC1(C)CCC[C@]2(C)C3=C(CC[C@@H]12)C(=O)OC3 [Confertifolin] | able to reduce ATP-mediated YO-PRO-1 uptake
O=C(O)c1cc(O)c(O)c(OC(=O)c2cc(O)c(O)c(O)c2)c1 [Digallic acid] | able to reduce ATP-mediated YO-PRO-1 uptake

Same assay, conditions: > 30 µM, HEK-hP2X7

SMILES | Effect on YO-PRO-1 uptake at high concentrations
COc1c2ccoc2cc2oc(=O)ccc12 [Bergapten] | reduction of YO-PRO-1 uptake in hP2X7 cells at high concentrations
O=c1c(-c2ccc(O)cc2)coc2cc(O)cc(O)c12 [Genistein] | reduction of YO-PRO-1 uptake in hP2X7 cells at high concentrations
CCCCCCCCCCCCCCCC(=O)O [Palmitic acid] | reduction of YO-PRO-1 uptake in hP2X7 cells at high concentrations

Same assay, conditions: ATP with vehicle (DMSO), no modulator

SMILES | EC50
Nc1ncnc2c1ncn2[C@@H]1O[C@H](COP(=O)(O)OP(=O)(O)OP(=O)(O)O)[C@@H](O)[C@H]1O [ATP, reference compound] | 131 µM and 110 µM

Same assay, conditions: HEK-hP2X7, 10 min pre-treatment, ATP 1 mM; read-out: IC50 value (95% CI)

SMILES | IC50 [µM]
O=C1CSC(=O)N1C(CCc1ccncc1)COc1ccc(-c2cccc([N+](=O)[O-])c2)cc1 (stereo not shown) [AZ11645373, reference compound] | 0.153
O=c1c(O)c(-c2ccc(O)cc2)oc2cc(O)cc(O)c12 [Kampferol, kaempferol] | 40

Same assay, conditions: HEK-hP2X7, NCI Natural Product Set IV compounds, Fig. 1F; read-out: IC50 (dose inhibition experiments)

SMILES | IC50 [µM]
CC1(C)CCC[C@]2(C)C3=C(CC[C@@H]12)C(=O)OC3 [Confertifolin] | 3.86
O=C(O)c1cc(O)c(O)c(OC(=O)c2cc(O)c(O)c(O)c2)c1 [Digallic acid] | 4.05

Same assay, conditions: IC50 value (95% CI)

SMILES | IC50 [µM]
O=C(O[C@@H]1Cc2c(O)cc(O)cc2O[C@@H]1c1ccc(O)c(O)c1)c1cc(O)c(O)c(O)c1 [ECG, epicatechin gallate] | 4.96
O=c1c(-c2ccc(O)cc2)coc2cc(O)cc(O)c12 [Genistein] | 49.7

Same assay, conditions: compound 10 µM

SMILES | Mechanism of action from ATP concentration–response curve
CC1(C)CCC[C@]2(C)C3=C(CC[C@@H]12)C(=O)OC3 [Confertifolin] | potential non-competitive mechanism of action
O=C(O)c1cc(O)c(O)c(OC(=O)c2cc(O)c(O)c(O)c2)c1 [Digallic acid] | potential non-competitive mechanism of action

Same assay, conditions: screen for PAM activity; compound 10 µM injected 60 s before ATP

SMILES | P2X7 response (% of control)
Nc1nc(=O)c2c([nH]1)NCC(CNc1ccc(C(=O)N[C@@H](CCC(=O)O)C(=O)O)cc1)N2C=O (mixture of isomers) [Folinic acid, reference compound] | 160.00 % of control
Cc1c2oc3c(C)ccc(C(=O)N[C@@H]4C(=O)N[C@H](C(C)C)C(=O)N5CCC[C@H]5C(=O)N(C)CC(=O)N(C)[C@@H](C(C)C)C(=O)O[C@@H]4C)c3nc-2c(C(=O)N[C@@H]2C(=O)N[C@H](C(C)C)C(=O)N3CCC[C@H]3C(=O)N(C)CC(=O)N(C)[C@@H](C(C)C)C(=O)O[C@@H]2C)c(N)c1=O [Actinomycin] (I: T[dV]P[Sar][NMeV] / II: T[dV]P[Sar][NMeV]; ester I:1-I:C, II:1-II:C; linker I:N-II:N via Actinocin(9to1)) | 188.44 % of control
CC(=O)O[C@H]1C(=O)[C@@]2(C)[C@H]([C@H](OC(=O)c3ccccc3)[C@]3(O)C[C@H](O)C(C)=C1C3(C)C)[C@]1(OC(C)=O)CO[C@@H]1C[C@@H]2O [Baccatin III] | 136.25 % of control
CC[C@H](C)C(=O)O[C@H]1CCC=C2C=C[C@H](C)[C@H](CC[C@@H](O)C[C@@H](O)CC(=O)O)[C@H]21 [Compactin] | 139.71 % of control
C/C=C/C(=O)O [Crotonic acid] | 142.15 % of control
COc1cc(/C=C/C(=O)CC(=O)/C=C/c2ccc(O)c(OC)c2)ccc1O [Curcumin] | 144.58 % of control
CC(=O)OC(C)C1C2=C(C(=O)C[C@]1(C)O)C(=O)c1c(ccc(-c3ccc4c(c3O)C(=O)C3=C(C4=O)C(C(C)OC(C)=O)[C@@](C)(O)CC3=O)c1O)C2=O (stereo partly shown) [Julimycin II] | 180.28 % of control
CCCCC[C@@H](O)[C@H]1C(=O)O[C@H](C)[C@@H](O)/C=C/C=C/C=C/C=C/C=C(\C)[C@@H](O)[C@H](O)[C@H](O)C[C@H](O)C[C@H](O)C[C@H](O)C[C@H](O)C[C@@H]1O [Lagosin] | 148.84 % of control
CC(=O)CCC(=O)O [Levullinic acid] | 134.82 % of control
Nc1ncnc2c1ncn2C1OCC(O)C1O (stereo not shown) [MLS003170979] | 129.73 % of control
COc1c(OC)c2c3c(nccc3c1OC)C(=O)c1cc(O)ccc1-2 [NSC785143] | 149.00 % of control
c1cc2c(c3c1C[C@@H]1NCCc4cc5c(c-3c41)OCO5)OCO2 [NSC785157] | 152.97 % of control
COc1cc2c3c(c1O)-c1cc(O)ccc1C[C@H]3N(C)CC2 [NSC785167] | 125.18 % of control
COc1cc2c3c(c1O)Oc1ccc(cc1)C[C@@H]1c4c(cc(OC)c(OC)c4Oc4ccc(cc4)C[C@@H]3N(C)CC2)CCN1C [NSC785173] | 148.84 % of control
COc1cc2c3c(c1O)-c1cc(N(Cc4ccccc4)Cc4ccccc4)ccc1CC3N(C)CC2 (stereo not shown) [NSC785176] | 159.37 % of control
COc1cc2c3c(c1O)-c1cc(O)ccc1CC3N(C)CC2 (stereo not shown) [NSC785186] | 146.91 % of control
COc1ccc2c(c1OC)-c1c(OC)c(OC)cc3c1[C@H](C2)NCC3 [NSC785187] | 127.21 % of control
COC1C(C)OC(OC2CC(C)(O)Cc3cc4c(c(O)c32)C(=O)c2c(O)cc3c(c2C4=O)OC2OC3(C)C(O)C(N(C)C)C2O)C(OC)C1(C)OC (stereo not shown) [Nogamycin] | 155.77 % of control
CC(=O)CCCCn1c(=O)c2c(ncn2C)n(C)c1=O [Pentoxifylline, reference compound] | 140.48 % of control
CC(C)=CCC[C@@H](C)C1=C(O)C(=O)C(C)=CC1=O [Perezone] | 148.44 % of control
COc1cc([C@@H]2c3cc4c(cc3[C@H](O)[C@H]3COC(=O)[C@@H]23)OCO4)cc(OC)c1OC [Picropodophyllin] | 145.86 % of control

Same assay, conditions: screen for potential negative allosteric modulators; compound 10 µM injected 60 s before ATP

SMILES | P2X7 response (% of control)
COc1cc(Cc2nccc3cc(OC)c(OC)cc23)c(C(C)=O)cc1OC [Acetopapaverine] | 34.92 % of control
COc1cc2c(c3c1c(=O)c1ccccc1n3C)C=CC(C)(C)O2 [Acronine] | 1.05 % of control
COc1cc([C@@H]2c3cc4c(cc3C[C@H]3COC(=O)[C@@H]32)OCO4)cc(OC)c1OC [Anthricin] | 30.94 % of control
NC(=O)C#CC(N)=O [Aquamycin] | 15.18 % of control
C[C@@H]1C[C@H](C)C[C@H](C)[C@@H](O)CC(=O)O[C@H]([C@@H]2CCC[C@H]2C(=O)O)C/C=C/C=C(/C#N)[C@H](O)[C@@H](C)C1 [Borrelidin] | 42.93 % of control
C[C@H]1Oc2cc3c(-c4c(O)cc(O)c5c(O)c6c(cc45)O[C@H](C)[C@@H](C)C6=O)c(O)cc(O)c3c(O)c2C(=O)[C@@H]1C [Chaetochromin A] | 12.08 % of control
CC1(C)CCC[C@]2(C)C3=C(CC[C@@H]12)C(=O)OC3 [Confertifolin] | 9.72 % of control
CC[C@H](C)[C@@H]1NC(=O)[C@@H]2CCCN2C(=O)[C@@H](CC(C)C)OC(=O)CCNC(=O)[C@H](C)N(C)C(=O)[C@H](C(C)C)N(C)C1=O [Destrusin B] (cyclo([dHica]PI[NMeV][NMeA][βAla])) | 46.65 % of control
O=C(O)c1cc(O)c(O)c(OC(=O)c2cc(O)c(O)c(O)c2)c1 [Digallic acid] | 0 % of control
COc1ccc2c(c1OC)CN1CCc3cc4c(cc3[C@@H]1C2)OCO4 [Hydroberberine] | 9.75 % of control
CCCn1cc2c3c(cccc31)[C@H]1C[C@@H](C)CN(C)[C@@H]1C2.O=C(O)C(O)C(O)C(=O)O [NSC332294] | 29.09 % of control
COc1cc2c(cc1O)C[C@H]1c3c(cc(OC)c(O)c3-2)CCN1C [NSC785158] | 49.59 % of control
CC(=O)O[C@H]1C[C@]2(O)[C@@H]3CC[C@@H]4C[C@@H](O)CC[C@]4(C)[C@H]3CC[C@]2(C)[C@H]1C1=CC(=O)OC1 [Oleandrogenin] | 42.33 % of control
